Test results published in PMC3914206.

Columns and labels:
panel of 442 kinases [1] = target: T1, panel of 442 kinases (Homo sapiens, UniProt P42680); type: binding; details: kinase TEC; compound concentration 10 µM
T1 construct: purchased KINOMEscan
T1 sequence (P42680 1-631): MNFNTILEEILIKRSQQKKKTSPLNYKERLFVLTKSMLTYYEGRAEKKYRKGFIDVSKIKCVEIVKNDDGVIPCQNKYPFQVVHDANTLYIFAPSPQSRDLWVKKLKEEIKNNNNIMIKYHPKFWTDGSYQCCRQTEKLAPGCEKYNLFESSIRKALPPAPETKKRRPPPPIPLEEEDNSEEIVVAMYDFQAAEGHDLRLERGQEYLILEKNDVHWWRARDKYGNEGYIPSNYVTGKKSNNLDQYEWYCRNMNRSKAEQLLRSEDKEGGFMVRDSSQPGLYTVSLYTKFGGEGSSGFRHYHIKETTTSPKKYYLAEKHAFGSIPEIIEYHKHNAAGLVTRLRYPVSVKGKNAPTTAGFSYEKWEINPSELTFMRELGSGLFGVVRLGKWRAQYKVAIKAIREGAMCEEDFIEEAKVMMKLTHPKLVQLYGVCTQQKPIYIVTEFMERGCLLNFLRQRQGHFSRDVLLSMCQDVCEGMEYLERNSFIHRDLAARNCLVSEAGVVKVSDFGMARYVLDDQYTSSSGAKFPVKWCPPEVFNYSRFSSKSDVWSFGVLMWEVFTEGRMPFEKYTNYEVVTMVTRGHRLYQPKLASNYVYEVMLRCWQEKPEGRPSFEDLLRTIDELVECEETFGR
Excerpt: (§1) We assessed the selectivity of members of this scaffold using the KINOMEscan methodology across a near comprehensive panel of 442 kinases [[18,27]].

panel of 442 kinases [2] = target: T2, panel of 442 kinases (Homo sapiens, UniProt Q06418); type: binding; details: kinase TYRO3; compound concentration 10 µM
T2 construct: purchased KINOMEscan
T2 sequence (Q06418 41-890): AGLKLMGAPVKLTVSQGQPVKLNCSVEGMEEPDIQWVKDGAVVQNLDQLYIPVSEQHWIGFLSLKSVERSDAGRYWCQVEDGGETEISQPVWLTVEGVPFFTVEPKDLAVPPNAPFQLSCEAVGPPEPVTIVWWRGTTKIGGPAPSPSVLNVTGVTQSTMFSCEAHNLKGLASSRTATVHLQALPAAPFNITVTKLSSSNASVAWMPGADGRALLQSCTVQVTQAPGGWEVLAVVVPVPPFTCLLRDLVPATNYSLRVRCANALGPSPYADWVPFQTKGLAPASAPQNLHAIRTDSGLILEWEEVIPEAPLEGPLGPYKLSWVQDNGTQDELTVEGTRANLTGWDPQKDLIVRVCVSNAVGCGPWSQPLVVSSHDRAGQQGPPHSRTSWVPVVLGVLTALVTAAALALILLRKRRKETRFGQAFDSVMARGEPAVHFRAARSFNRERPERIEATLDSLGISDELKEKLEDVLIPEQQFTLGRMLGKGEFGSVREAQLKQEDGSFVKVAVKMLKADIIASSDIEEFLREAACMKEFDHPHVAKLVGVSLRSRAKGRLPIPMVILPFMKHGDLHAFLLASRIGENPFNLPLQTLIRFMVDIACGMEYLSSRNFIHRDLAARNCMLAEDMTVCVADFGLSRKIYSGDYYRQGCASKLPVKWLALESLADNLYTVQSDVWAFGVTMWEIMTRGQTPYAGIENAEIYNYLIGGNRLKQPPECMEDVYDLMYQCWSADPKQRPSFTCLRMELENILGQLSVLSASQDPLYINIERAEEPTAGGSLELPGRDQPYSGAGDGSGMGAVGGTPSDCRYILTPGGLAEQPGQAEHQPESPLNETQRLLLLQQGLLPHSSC
Excerpt: as §1

Row | SMILES | % Ctrl, TEC (panel of 442 kinases [1]) | % Ctrl, TYRO3 (panel of 442 kinases [2])
1 | COc1cc(C(=O)N2CCC(N3CCN(C)CC3)CC2)ccc1Nc1ncc2c(n1)N(C1CCCC1)c1ccccc1C(=O)N2C [Compound 25, 11-cyclopentyl-2-((2-methoxy-4-(4-(4-methylpiperazin-1-yl)piperidine-1-carbonyl)phenyl)amino)-5-methyl-5H-benzo[e]pyrimido[5,4-b][1,4]diazepin-6(11H)-one] | 91 % Ctrl | 100 % Ctrl
2 | CCOc1cc(C(=O)N2CCC(N3CCN(C)CC3)CC2)ccc1Nc1ncc2c(n1)N(C1CCCC1)c1ccccc1C(=O)N2C [Compound 26] | 100 % Ctrl | 100 % Ctrl
3 | COc1cc(C(=O)N2CCC(N3CCN(C)CC3)CC2)ccc1Nc1ncc2c(n1)N1CCc3cccc(c31)C(=O)N2C [Compound 24] | 100 % Ctrl | 100 % Ctrl
4 | COc1cc(C(=O)N2CCC(N3CCN(C)CC3)CC2)ccc1Nc1ncc2c(n1)N(C)c1ccccc1C(=O)N2C [15 (LRRK2-IN-1)] | 100 % Ctrl | 100 % Ctrl
